{
  "source": "PubChem BioAssay AID1259409",
  "about": "(Chemical Carcinogenesis Research Information System (CCRIS), 2018)",
  "origin": "cited, not measured here",
  "test_system": "rodent chemically induced tumor inhibition, incidence and multiplicity",
  "assay": "CCRIS tumor inhibitor studies",
  "conditions": "Carcinogen: N-METHYL-N'-NITRO-N-NITROSOGUANIDINE, 70-25-7, Dose [Inhibitor]: 0, 42 MG/KG TWICE WITHIN 24 HR THEN 105 MG/KG 1/2 WK FOR DURATION OF STUDY BEGINNING 1 WK POST LAST CARCINOGEN DOSE (STU, Route [Inhibitor]: INTRAPERITONEAL, Species: RAT, Target Tissue: Type of Lesion: STOMACH: ADENOCARCINOMA, Dose [Carcinogen]: 25 UG/ML IN DRINKING WATER FOR 25 WK, Promoter: NONE USED",
  "data": [
    {"smiles": "CCOC(=O)C(C)(C)Br", "values": [
      {"measurement": "tumour outcome (control, treated, inhibition, significance)", "setting": "Strain/Sex: SHR/MALE", "result": "10/19 (53%), 2/17 (12%), 77%, p<0.05"},
      {"measurement": "tumour outcome (control, treated, inhibition, significance)", "setting": "Strain/Sex: WISTAR/MALE", "result": "2/18 (11%), 0/17 (0%), 100%, not significant"}
    ]}
  ]
}
